These results are taken from patent publication US5534242A, “Lidocaine-vasoconstrictor aerosol preparation” (priority 1995, dated 1996).

Where a name gives a salt, the structure may show the parent alone.

The conditions of data set [1]: cited from earlier work.
Data set [2] relates to nasal mucosa. The following applies: cited from earlier work.
The nature of data set [3]: Solubilization of vasoconstricting agents in HFC propellants with lidocaine base; stability of the formulations. The following applies: for Behaviour of ethanol solution on addition of HFC-134a: ethanol solution also containing lidocaine free base; for Solubility in lidocaine base/HFC-134a solution: base form dissolved in ethanol (Formulations 11 and 12). How it is done:
The formulations of this invention can be manufactured in different ways. In one method, the lidocaine and vasoconstricting agent are dissolved in the organic solvent and place in the aluminum canister which is then capped and pressure filled with propellant. Where an organic solvent is not required, the lidocaine and vasoconstricting agent are dissolved in the propellant which is then pressure filled into the closed empty aluminum canister.
These formulations are presented for exemplary purposes only and by no means limit the scope and content of the invention defined by the claims.

With `OCc1ccccc1` [Benzyl alcohol], the “Solubility of organic solvent in HFC-134a” value (HFC-134a, no lidocaine) is reported as “not soluble”.
In the case of `COC(=O)[C@H]1[C@@H](OC(=O)c2ccccc2)C[C@@H]2CC[C@H]1N2C` [Cocaine], the “Dose that may cause systemic toxicity” value in data set [1] (even small doses) is “approximately 30 mg”. For the same molecule, in data set [1] (most patients), the Tolerability entry was “well tolerated by most patients”.
Take `CCN(CC)CC(=O)Nc1c(C)cccc1C` [Lidocaine base, 2-(diethylamino)-2',6'-acetoxylidide]: in data set [2], the “Vasoconstriction of the mucosa” value is “does not vasoconstrict the mucosa”. Besides, the “Behaviour of ethanol solution on addition of HFC-134a” value in data set [3] (HFC-134a) is recorded as “remained in solution”.
In the case of `CNC[C@H](O)c1cccc(O)c1` [Phenylephrine], the “Decongestion of the nasal mucosa” value in data set [2] is on record as “excellent decongestion”.
For `COc1ccc(OC)c(C(O)C(C)N)c1` (stereo not shown) [methoxamine], in data set [3], the “Solubility in lidocaine base/HFC-134a solution” value was “readily soluble”.
Consider `CNC[C@H](O)c1cccc(O)c1` [phenylephrine base], for which the “Clear and stable solution with phenylephrine base substituted for the hydrochloride in formulation 9” value in data set [3] (diethylene glycol, lidocaine base, HFC-134a) is “Clear and stable solutions”.
For the molecule `CNC[C@H](O)c1cccc(O)c1` [phenylephrine hydrochloride, (R)-3-hydroxy-alpha-[(methylamino)methyl]benzene methanol hydrochloride], the “Behaviour of ethyl alcohol solution on addition of HFC-134a” value (2.5% w/w in ethyl alcohol, HFC-134a, no lidocaine) was “precipitated out of solution”. Further, where the note is “HFC-134a and HFC-227, no lidocaine”, the “Solubility in HFC propellants” value is reported as “insoluble”. For the same molecule, the “Additional ethyl alcohol required to maintain a solution in HFC-134a in the absence of lidocaine base” value (HFC-134a, versus with lidocaine base, almost 50% more) is recorded as roughly 50%. Moreover, the “Solubility of combination with benzyl alcohol in HFC-134a” value (benzyl alcohol + HFC-134a, no lidocaine) is recorded as “not soluble”. In addition, the “Solubility in benzyl alcohol” value (benzyl alcohol, HFC-134a added, no lidocaine) is recorded as “remained in solution”. Besides, the “Solubility in diethylene glycol” value (diethylene glycol) is “soluble”. The “Solubility of combination with diethylene glycol in HFC-134a” value (diethylene glycol + HFC-134a, no lidocaine) was “not soluble”. Also, the “Solubility in propylene glycol” value (propylene glycol) is “soluble”. The “Solubility of combination with propylene glycol in HFC-134a” value (propylene glycol + HFC-134a, no lidocaine) is recorded as “not soluble”. Also, the “Behaviour of ethanol solution on addition of HFC-134a” value in data set [3] (HFC-134a) is reported as “remained in solution”.
In the case of `CC(N)C(O)c1ccccc1` (stereo not shown) [phenylpropanolamine], the “Solubility in lidocaine base/HFC-134a solution” value in data set [3] is “readily soluble”.
